Results: patent US20240009175A9, “TETRAZOLE DERIVATIVES” (Merck Patent GmbH, priority 2020, published 2024)

Key:
[1] = target: human rec ACSS2 (Homo sapiens (Human), UniProt Q9NR19); assay: Biochemical activity ACSS2 assay (AMP-Glo); conditions: human recombinant ACSS2, AMP-Glo, 180 min at 37° C.
Source text: Biochemical Activity ACSS2 Assay (IC50 ACSS2 Biochemical)
The biochemical activity assay for ACSS2 is based on the detection of released AMP by AMP-Glo™ Assay kit (Promega, Madison). The assay is run in three steps: the enzymatic reaction in which human rec ACSS2 activates acetate with ATP and Coenzyme A as cosubstrates to acetyl-CoA thereby releasing AMP and the detection reaction of AMP by AMP Glo assay in which after the destruction of the residual ATP with AMP Glo reagent 1 produced AMP is converted to ATP that is measured in a luciferase assay system (detection reagent). The ACSS2 activity correlates with the detected luminescence signal.
The assay was performed in Perkin Elmer 384 well white Proxiplates in a total volume of 8 μl.
1 nM (fc)C-term myc tagged ACSS2 (human, recombinant, Origene, Rockville, US) and a mixture of 100 μM (fc) ATP, 100 μM (fc) Coenzyme A and 500 μM (fc) sodium acetate were incubated in a total volume of 5 μl (50 mM Hepes, 1 mM Mg-chloride, 150 mM NaCl, 1 mM DTT, 0.01% (w/v) BSA, 0.3% DMSO, pH 7.5) in the absence or presence of the test compound (10 dilution concentrations, start conc 30 μM) for 180 min at 37° C. The reaction was stopped and residual ATP destroyed by the addition of 1 μl AMP Glo reagent solution (Promega, Madison, US). After 1h incubation at room temperature 2 μl of AMP Glo detection reagent was added and the assay was incubated for 0.75 hr at room temperature. The luminescence signal was measured with an Envision multimode reader (Perkin Elmer LAS Germany GmbH) at 700 nm in luminescence mode. The full value used was the inhibitor-free reaction. The pharmacological zero value was generated by addition of ACSS2 inhibitor (Ac-CoA Synthase Inhibitor—CAS 508186-14-9-Calbiochem) in a final concentration of 5 μM. The inhibitory values (IC50) were determined using the program Assay Analyzer® from GeneData.

[2] = target: T1, ACSS2 (Homo sapiens (Human), UniProt Q9NR19); assay: Cellular assay of 14C acetate incorporation into fatty acids (IC50 ACSS2 cellular lipids); type: cell-based; conditions: HCT-15 cells
Procedure: Cellular Assay of ^14C Acetate Incorporation into Fatty Acids (IC50 ACSS2 Cellular Lipids)
This protocol describes a cellular assay capable to quantify endogenous fatty acid synthesis activity in the human HCT-15 cancer cell line following the incorporation of extracellularly administered radiolabeled ^14C acetate with a scintillation proximity based read out on extracted fatty acids.
HCT-15 cells were grown in RPMI 1640 (Gibco) supplemented with 2 mM glutamine, 1 mM sodium pyruvate 10 mM HEPES and 10% FCS (heat-inactivated) passaged every 2-3 days to remain a subconfluent, vital culture. A working cell bank was prepared with each aliquot containing 1×10^7 viable cells. After thawing, these cells are dilute immediately 1:20 in pre-warmed (37° C.) culture medium. Cells are collected by centrifugation at 200×g for 5 min, and the supernatant is replaced by 30 mL of fresh culture medium per aliquot to obtain a cell suspension containing 350000 cells/ml. From this cell suspension 100 μL are dispersed into each well of a collagen coated 96 well plate, (black, clear bottom, PS, F-bottom, Greiner) and culture for 24 h (37° C., 5% CO2). After incubation the culture medium is removed and the wells are washed once with 100 μL PBS++(supplemented with Mg^2+/Ca^2+, Gibco) and 50 μL assay medium (RPMI 1640+10 mM HEPES) are added to each well. Compounds serial dilutions are prepared from 10 mM stock solutions in DMSO using a fixed dilution factor (usually 1:3). After preparation of the dilution series in DMSO, the individual dilutions are further diluted in the assay medium. This working dilution is prepared such, that the concentration is 7× of the final concentration in the assay. The maximal DMSO concentration in the final assay is 0.1%.
To each well 10 μL compound working dilution or DMSO blank are added and the cells are cultured for 2 h (37° C., 5% CO2). Then 10 μL AlamarBlue reagent (Invitrogen) containing 14 μCi/mL 14C-acetate (Perkin Elmer) are added to each well (70 μl total volume) and cells are again cultured for 2 h. Cell viability is verified by measuring the AlamarBlue fluorescence (Tecan Safire, ex: 544 nm/em: 590 nm). After incubation the culture medium is removed and the wells are carefully washed once with cold 100 μL PBS++. For cell lysis and fatty acid recovery 50 μl 0.1 M NaOH and 0.1% Triton-X100 are added per well. The plate is sealed with PlateLoc (clear peelable heat seal, Agilent) and incubate at 70° C. for 16-24 h. After cooling to room temperature, the plates are centrifuged for 1 min at 1000 rpm and the plate seals are removed. For acidification 150 μL 0.1 M HCl are added to each well, mixed and 150 μL of the mixture are transferred into a 96 well FlashPlate (Perkin Elmer). The plates are sealed with TopSeal-A (Perkin Elmer). To allow for the fatty acid binding to the well surfaces the plates are incubate for 4 h at 70° C. After cooling to room temperature, the plates are centrifuged for 1 min at 1000 rpm and stored for 0.5-2h at room temperature in the dark. Radioactivity from ^14C incorporation into fatty acids in the wells is measured as CPM count in a MicroBeta scintillation counter (Perkin Elmer).

[3] = target: T1, ACSS2; assay: Cellular assay of 14C acetate incorporation into histones (IC50 ACSS2 cellular histone); type: cell-based; conditions: HCT-15 cells
Source text: Cellular Assay of ^14C Acetate Incorporation into Histones (IC50 ACSS2 Cellular Histone)
This protocol describes a cellular assay capable to quantify endogenous histone acetylation activity in the human HCT-15 cancer cell line following the incorporation of extracellularly administered radiolabeled ^14C acetate with a scintillation based read out on acid extracted histones.
HCT-15 cells are trypsinized, washed and suspended in DMEM culture medium supplemented with penicillin/streptomycin (100 U/mL), sodium pyruvate (1 mM), and 10% FBS
Compounds serial dilutions are prepared in 96-well V-bottom microplate from 10 mM stock solutions in DMSO. From these dilutions 0.5 μl are transferred to a fresh plate including pure DMSO as negative control. The dilutions are prepared such, that the final concentration in the assay is 1/400 of the concentration in the serial dilution. The final DMSO concentration in the assay is 0.25%.
The cell suspension is seeded at densities of 2×10^5 cells per 170 μl into individual wells of a 96 well plate each containing 0.5 μl aliquots of compound serial dilutions and are kept for 1 h in a cell incubator. To each well 30 μL of a mixture containing 0.5 mCi/mL of ^14C-acetate with full medium are added. Then, the wells are incubated for 3 hrs in the cell incubator.
Further steps of the procedure should be conducted on ice or instrumentations precooled to 4° C. Cells are sedimented in the 96-well V-bottom microplate by centrifugation (Eppendorf 5804 R) at 1200 rpm for 5 min. The supernatant is removed and the cells are washed twice with 200 μL of PBS-NaB (5 mM sodium butyrate) buffer by iterative resuspension and centrifugation. Finally, the cells are resuspended in 50 μL of TEB (PBS-NaB+0.5% Triton X-100) and left on ice for 10 minutes. After centrifugation at 2300 rpm for 10 minutes at 4° C. the supernatant is removed, the remaining pellet is suspended in 50 μL of 0.2M HCl and incubated over night at 4° C. After incubation the well plate is shaken for 2 minutes in a MTP plate shaker set to 1200 rpm and then centrifuged at 3700 rpm for 10 mins. The lysate is carefully aspirated (˜43 μL) and transferred into a white MTP plate (Greiner bio-one 65509). 90 μL of Ultima Gold XR scintillation cocktail are added and the plates are sealed with a transparent cover tape before mixing vigorously using plate shaker set to 1200 rpm. Radioactivity from ^14C incorporation in the wells is measured as CPM count in a MicroBeta Trilux luminescence counter.

human rec ACSS2, sequence (Q9NR19 whole entry): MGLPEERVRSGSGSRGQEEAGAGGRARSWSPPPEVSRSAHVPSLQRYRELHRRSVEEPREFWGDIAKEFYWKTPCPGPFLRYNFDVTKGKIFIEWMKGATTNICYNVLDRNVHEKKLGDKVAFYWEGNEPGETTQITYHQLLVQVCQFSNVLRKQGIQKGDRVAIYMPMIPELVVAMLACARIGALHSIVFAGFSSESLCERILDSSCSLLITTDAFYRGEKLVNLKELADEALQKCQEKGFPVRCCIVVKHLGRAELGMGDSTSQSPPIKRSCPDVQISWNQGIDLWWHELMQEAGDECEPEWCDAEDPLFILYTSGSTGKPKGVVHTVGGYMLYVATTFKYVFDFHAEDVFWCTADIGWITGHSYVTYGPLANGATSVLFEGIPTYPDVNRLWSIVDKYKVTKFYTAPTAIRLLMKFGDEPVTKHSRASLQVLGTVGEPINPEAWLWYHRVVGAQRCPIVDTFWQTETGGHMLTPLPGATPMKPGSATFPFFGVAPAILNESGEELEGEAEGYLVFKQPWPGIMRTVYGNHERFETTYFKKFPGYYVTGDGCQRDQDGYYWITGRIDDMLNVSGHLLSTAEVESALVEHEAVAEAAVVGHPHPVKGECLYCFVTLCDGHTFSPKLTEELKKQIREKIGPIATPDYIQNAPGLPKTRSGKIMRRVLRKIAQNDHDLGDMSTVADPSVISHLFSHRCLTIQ
T1 sequence (Q9NR19 whole entry): as above

IC50 [1] | IC50 [2] | IC50 [3] | SMILES
1 to 10 nM | 10 to 100 nM | 100 to 10000 nM | Cc1nc2nc(C(O)(c3ccccc3)c3ccccc3)n(C)c2cc1-c1nnn[nH]1 [Compound 56, [1,5-dimethyl-6-(1H-1,2,3,4-tetrazol-5-yl)-1H-imidazo[4,5-b]pyridin-2-yl]diphenylmethanol]
10 to 100 nM | 1 to 10 nM | 100 to 10000 nM | CCn1c(C(O)(c2ccccc2)c2ccccc2)nc2nc(F)c(-c3nnn[nH]3)cc21 [Compound 45, [1-ethyl-5-fluoro-6-(1H-1,2,3,4-tetrazol-5-yl)-1H-imidazo[4,5-b]pyridin-2-yl]diphenylmethanol]

SMILES | IC50 [1] | IC50 [2] | IC50 [3]
CCn1c(C(O)(c2ccccc2)c2nccs2)nc2nc(OC)c(-c3nnn[nH]3)cc21 (racemic) [Compound 31, [1-ethyl-5-methoxy-6-(1H-1,2,3,4-tetrazol-5-yl)-1H-imidazo[4,5-b]pyridin-2-yl](phenyl)(1,3-thiazol-2-yl)methanol] | 1 to 10 nM | 0.01 to 1 nM | 1 to 10 nM
